How the values were obtained:
[1] = test system: dogs with naturally occurring coxofemoral joint disease; details: dog, in vivo, po, 3 mg/kg
Method: (§1) Efficacy was determined by rear limb using a quantified kinetic gait analysis.

[2] = test system: dogs with naturally occurring coxofemoral joint disease; test: PAH-100 oral tablet efficacy (PAH16-013), kinetic gait analysis; details: for abnormal clinical observations or adverse events: nine hound dogs, each received all treatments, PAH-100 single oral 3 mg/kg, carprofen 4.4 mg/kg PO q24 hr, 7 doses
Method: as §1

| SMILES | tolerability [1] | limb use by kinetic gait analysis, compared to no treatment and daily carprofen ([2]; dogs with coxofemoral joint osteoarthritis, single oral 3 mg/kg, over 7 days, majority of kinetic outcomes) | abnormal clinical observations or adverse events [2] |
| --- | --- | --- | --- |
| O=C(O)C1=Cc2cc(OC(F)(F)F)ccc2OC1C(F)(F)F (racemic) [PAH-100, (±)-6-(trifluoromethoxy)-2-(trifluoromethyl)-2H-chromene-3-carboxylic acid] | well tolerated | improved limb use | No abnormal clinical observations or adverse events |
| CC(C(=O)O)c1ccc2c(c1)[nH]c1ccc(Cl)cc12 (stereo not shown) [carprofen, reference compound] | – | – | No abnormal clinical observations or adverse events |

Source: patent US20210186923A1, “THERAPEUTIC FORMULATIONS AND USES THEREOF” (PIEDMONT ANIMAL HEALTH INC., priority 2017, published 2021)
